Like-named read-outs stand apart in the source and are kept apart here.
Columns and labels:
MDA-MB-231 cells [1] = experiment: HCA of apoptosis and ERK phosphorylation (multiparametric: nuclear condensation, caspase-3 cleavage, ERK phosphorylation); format: cell-based, human; details: for IC50: Homo sapiens, 24 hours
Protocol: MDA-MB-231 cells (10,000/well) were treated with identical concentration gradients of test agents on the right and left half of a 384 well microplate for later assessment of potential compound autofluorescence. After 24 hours, cells were fixed, permeabilized with 0.2% Triton X-100, blocked with 1% BSA/PBS, and immunostained with anti-phospho-ERK (E10, CST cat#9106L)/AlexaFluor488 and anti-cleaved caspase-3 (CST cat#9664L)/AlexaFluor594 primary/secondary antibody pairs. Plates were imaged on the ArrayScan II using a 10×0.5NA objective. Each well was background corrected by subtracting mean phospho-ERK and cleaved caspase-3 intensities from wells that had received secondary antibody only. Data in Table 1 are the averages of the indicated numbers of independent experiments, each performed in quadruplicate. IC50, standard error, and 95% confidence intervals were calculated by […] in GraphPad Prism.
Multiple data points were analyzed in GraphPad Prism by one-way ANOVA using Dunnett's multiple comparison test. EC50/IC50 values were obtained from at least three independent experiments by non-linear regression using a four parameter logistic equation. IC50, standard error, and 95% confidence intervals were calculated in GraphPad.

rat hepatocytes = experiment: Five-day hepatocyte toxicity (PI positive cells); format: cell-based; details: rat hepatocytes, 5-day exposure
Protocol: Rat hepatocytes were isolated using standard two step collagenase digestion (15) and sub-cultivated at 14,000 hepatocytes/well in collagen-1 coated 384 well plates in Williams E Medium supplemented with 10% FBS, 2 mM L-glutamine and 50 U/ml Penicillin and streptomycin. After 4 hours, medium was decanted and replaced with Hepatocyte Maintenance Media (Williams E supplemented with 1.25 mg/ml bovine serum albumin, 6.25 μg/ml human insulin, 100 nM dexamethasone, 6.25 μg/ml human transferrin, 6.25 ng/ml selenous acid, 2 mM L-glutamine, 15 mM HEPES, 100 U/mL penicillin, and 100 U/mL streptomycin). After overnight culture, cells were treated with concentration gradients of test agents. One hour after compound addition, cells were labeled with 200 nM TMRE and 4 μg/ml Hoechst 33342 for 45 min, imaged live on an ArrayScan VTI using a 10× objective, and images were analyzed with the Compartmental Bioapplication. Mitochondria were identified as cytosolic spots by size and brightness. The final parameter was % HIGH RingSpotAvgIntenCh2 (i.e., percentage of cells with TMRE puncta in the cytoplasm based on a threshold set with vehicle treated cells).
A gelling solution of 1.25 mg/ml rat tail collagen type I in pH 7.2 90:10 (v/v) Williams E media/10×HBSS was overlaid onto the rat hepatocytes. The collagen gel was incubated for 1 hour at 37° C., 5% CO2. The collagen sandwich cultures were then challenged for 5 days to test compounds in Hepatocyte Maintenance Media, without refeeding. A 10× solution of 40 μg/ml Hoechst 33342 was added during the final 2 hours of incubation followed by a 10× solution of 20 μg/ml PI for 1 hour. Cells were imaged and the percentage of PI positive cells calculated as above.

MDA-MB-231 cells [2] = experiment: HCA of cell motility and cytotoxicity (Oris Pro 384 cell migration plate); format: cell-based, human; details: 48 hours, at antimigratory concentrations
Protocol: HCA of cell motility and cytotoxicity was performed essentially as described (51). MDA-MB-231 cells (15,000/well) were plated in collagen-coated Oris™ Pro 384-well microplates (Platypus Technologies cat # PRO384CMACCS) containing a chemical exclusion zone that dissolves upon cell seeding. Two hours after plating, medium was removed, and cells treated with ten-point, two-fold concentration gradients of test agents. Forty-eight hours after treatment, cells were stained with 10 μg/ml Hoechst 33342 and 1 μg/ml PI in HBSS for 15 min at 37° C. Plates were washed once with PBS and scanned live on the ArrayScan II using a 5× objective. To capture cells that had entered into the exclusion zone, a single field was acquired in the center of the well and nuclei therein enumerated. To assess changes in cell loss, nuclear size, and necrotic cell death, a second scan was performed that captured one field at the edge of the well (51). Parameters exported and plotted were SelectedObjectCountPerValidField (cell density), MEAN ObjectAreaCh1 (nucleus size), and % RESPONDER MeanAvgIntenCh2 (percent PI positive cells based on based on a threshold set with vehicle treated cells).

MDA-MB-231 cells [3] = experiment: Colony formation in three dimensional matrigel culture; format: cell-based, human
Protocol: MDA-MB-231 cells (2000/well) transduced with a biosensor consisting of EGFP with a mitochondrial targeting sequence derived from cytochrome-C oxidase subunit VIII (52) were trypsinized, resuspended in RPMI1640 containing 2% FBS and 2% matrigel, and seeded in 384 well microplates on a 15 μl cushion of undiluted matrigel. After 24 hours, cells were treated with various concentrations of BCI-215 or vehicle (0.2% DMSO). After two days, drug was washed out and cells allowed to expand for an additional three to five days. At the end of the study, medium was replaced with HBSS containing 4 μg/ml PI for 1 hour, and plates scanned live on an ImageXpress Ultra HCS reader, acquiring z-stacks (4× objective, 20 planes, 50 μm) in the green and red channels. Cell numbers were quantified from maximum projection images using the Multiwavelength Cell Scoring application.

[4] = test system: ERK, JNK/SAPK, p38, MEK1 and MKK4/SEK1 phosphorylation; experiment: Western blot of MAPK cascade phosphorylation; format: cell-based, human; details: 20 μM
MDA-MB-231 cells [5] = experiment: BCI-215 toxicity in the presence of doxorubicin; format: cell-based, human; details: doxorubicin 5 μM pre-treated 2-3 hours
Protocol: FIG. 9. Reduced toxicity of BCI-215 in the presence of doxorubicin. MDA-MB-231 carrying the mitochondrial-targeted, GFP-labeled cytochrome C biosensor were treated for 2-3 hours with vehicle (DMSO) or doxorubicin (5 μM) before being exposed to concentration gradients of BCI-215 for 20 h. Plates were scanned live on an ImageXpress high content reader at 20× magnification and GFP positive cells enumerated. Cell densities were normalized to vehicle or doxorubicin alone, respectively. Data are the averages ±SD from three independent experiments, each performed in quadruplicate.

[6] = test system: DUSP6/MKP-3 and DUSP1/MKP-1; details: HeLa cells, prior study (12); cited from earlier work

SMILES: O=C1/C(=C/c2ccccc2)C(NC2CCCCC2)c2cc(Br)ccc21 (stereo not drawn) [BCI-215]
- nuclear morphology (MDA-MB-231 cells [1]; BCI and BCI-215 at 22 μM): shrunken, condensed nuclei that resembled pyknosis
- IC50 (MDA-MB-231 cells [1]; induction of phospho-ERK, read-out: IC50 ERK phosphorylation): 15.4 µM
- IC50 (MDA-MB-231 cells [1]; read-out: IC50 Caspase-3 cleavage): 7.33 µM
- IC50 (MDA-MB-231 cells [1]; read-out: IC50 Nuclear condensation): 12.8 µM
- hepatocyte toxicity, cell death (PI positive cells) (rat hepatocytes): completely devoid of hepatocyte toxicity up to 100
- necrosis (% PI positive cells) (MDA-MB-231 cells [2]): no signs of necrosis
- cell lysis (PI positivity) (MDA-MB-231 cells [3]; longer-term 3D matrigel assay): pronounced cell lysis
- colony formation (MDA-MB-231 cells [3]; matrigel-on-top model, two days of exposure then washout): inhibited colony formation
- activation of upstream kinases MEK1 and MKK4/SEK1 ([4]; MDA-MB-231, BT-20 and HeLa, 1 hour): activated MEK1 and MKK4/SEK1
- activation (phosphorylation) of ERK, JNK/SAPK and p38 ([4]; MDA-MB-231 cells): activated all three kinases
- toxicity of BCI-215 after doxorubicin pre-treatment (cell numbers) (MDA-MB-231 cells [5]): reduced the toxicity of BCI-215
- effect on ectopic DUSP6/MKP-3 and DUSP1/MKP-1 expression [6]: override the effects

From patent US20190358176A1, “METHODS OF SENSITIZING CANCER CELLS TO IMMUNE CELL KILLING” (University of Pittsburgh - of the Commonwealth System of …, priority 2017, published 2019)
